Results taken from ChEMBL document CHEMBL4385608, “5-Aryl-1,3,4-oxadiazol-2-ylthioalkanoic Acids: A Highly Potent New Class of Inhibitors of Rho/Myocardin-Related Transcription Factor (MRTF)/Serum Response Factor (SRF)-Mediated Gene Transcription as Potential Antifibrotic Agents for Scleroderma” (J Med Chem, 2019).
Converted amounts (≈) assume the structure as drawn. Values belong to the compound of their own block, whether it stands above or below them. The source made the active and inactive calls. No cut-off for these calls is given here.

Assays:
PC-3 [1] = assay: Cytotoxicity against human PC3 cells assessed as reduction in cell viability up to 100 uM by WST-1 assay relative to control; type: cell-based
Mus musculus [2] = assay: Antifibrotic activity in bleomycin-induced mouse model of dermal fibrosis assessed as decrease in hydroxyproline content administered daily via oral gavage for 14 days measured post-last dose; type: functional, organism-based
Mus musculus [3] = assay: Antifibrotic activity in bleomycin-induced mouse model of dermal fibrosis assessed as decrease in dermal thickness administered daily via oral gavage for 14 days measured post-last dose by Masson's trichrome-staining based microscopic method; type: functional, organism-based
[4] = Inhibition of Rho/MRTF/SRF pathway (unknown origin) expressed in human PC3 cells assessed as reduction in Galpha12 Q231L-stimulated MRTF-selective SRE.L promoter-driven luciferase activity after overnight incubation by luminescence assay; type: cell-based
[5] = Inhibition of Rho/MRTF/SRF pathway (unknown origin) expressed in HEK293T cells assessed as reduction in Galpha12-stimulated MRTF-selective SRE.L promoter-driven luciferase activity after overnight incubation by luminescence assay; type: cell-based, Homo sapiens
[6] = Half-life in CD-1 mouse liver microsomes at 1 uM in presence of NADPH by LC-MS/MS analysis; type: ADME, Microsome
[7] = Thermodynamic solubility of the compound; type: physicochemical; conditions: read-out: Therm_solubility
[8] = Half-life in CD-1 mouse at 15 mg/kg, iv by LC-MS/MS analysis; type: ADME, organism-based; conditions: in vivo
[9] = Half-life in CD-1 mouse at 30 mg/kg, po by LC-MS/MS analysis; type: ADME, organism-based; conditions: in vivo
[10] = AUC in CD-1 mouse at 15 mg/kg, iv by LC-MS/MS analysis; type: ADME, organism-based; conditions: in vivo
[11] = AUC in CD-1 mouse at 30 mg/kg, po by LC-MS/MS analysis; type: ADME, organism-based; conditions: in vivo
[12] = Clearance in CD-1 mouse at 15 mg/kg, iv by LC-MS/MS analysis; type: ADME, organism-based; conditions: in vivo
[13] = Cmax in CD-1 mouse at 15 mg/kg, iv by LC-MS/MS analysis; type: ADME, organism-based; set-up: dose 15 mg/kg, route intravenous; conditions: in vivo
[14] = Cmax in CD-1 mouse at 30 mg/kg, po by LC-MS/MS analysis; type: ADME, organism-based; set-up: dose 30 mg/kg, route oral; conditions: in vivo
[15] = Oral bioavailability in CD-1 mouse at 30 mg/kg by LC-MS/MS analysis; type: ADME, organism-based; conditions: in vivo
Homo sapiens [16] = species: Homo sapiens; assay: Inhibition of Rho/MRTF/SRF pathway in human primary dermal fibroblasts assessed as reduction in LPA-stimulated CTGF mRNA expression preincubated for 48 hrs followed by LPA stimulation and measured after 1 hr by qPCR analysis
Homo sapiens [17] = species: Homo sapiens; assay: Inhibition of Rho/MRTF/SRF pathway in human primary dermal fibroblasts assessed as reduction in LPA-stimulated CTGF mRNA expression preincubated for 72 hrs followed by LPA stimulation and measured after 1 hr by qPCR analysis
HEK-293T = assay: Cytotoxicity against HEK293T cells assessed as reduction in cell viability up to 100 uM by WST-1 assay relative to control; type: cell-based; conditions: human
Mus musculus [18] = assay: Antifibrotic activity in bleomycin-induced C57BL/6 mouse model of dermal fibrosis assessed as decrease in dermal thickness at 3 to 10 mg/kg, po administered via gavage for 14 days measured post-last dose by Masson's trichrome-staining based microscopic method; type: functional, organism-based
Mus musculus [19] = assay: Antifibrotic activity in bleomycin-induced C57BL/6 mouse model of dermal fibrosis assessed as decrease in hydroxyproline content at 3 to 10 mg/kg, po administered via gavage for 14 days measured post-last dose; type: functional, organism-based
[20] = Equilibrium solubility of the compound in phosphate buffer saline; type: physicochemical
[21] = Half-life in CD-1 mouse at 3 mg/kg, iv by LC-MS/MS analysis; type: ADME, organism-based; conditions: in vivo
[22] = Half-life in CD-1 mouse at 3 mg/kg, po by LC-MS/MS analysis; type: ADME, organism-based; conditions: in vivo
[23] = Half-life in CD-1 mouse at 10 mg/kg, po by LC-MS/MS analysis; type: ADME, organism-based; conditions: in vivo
[24] = AUC in CD-1 mouse at 3 mg/kg, iv by LC-MS/MS analysis; type: ADME, organism-based; conditions: in vivo
[25] = AUC in CD-1 mouse at 3 mg/kg, po by LC-MS/MS analysis; type: ADME, organism-based; conditions: in vivo
[26] = AUC in CD-1 mouse at 10 mg/kg, po by LC-MS/MS analysis; type: ADME, organism-based; conditions: in vivo
[27] = Clearance in CD-1 mouse at 3 mg/kg, iv by LC-MS/MS analysis; type: ADME, organism-based; conditions: in vivo
[28] = Cmax in CD-1 mouse at 3 mg/kg, iv by LC-MS/MS analysis; type: ADME, organism-based; set-up: dose 3 mg/kg, route intravenous; conditions: in vivo
[29] = Cmax in CD-1 mouse at 3 mg/kg, po by LC-MS/MS analysis; type: ADME, organism-based; set-up: dose 3 mg/kg, route oral; conditions: in vivo
[30] = Cmax in CD-1 mouse at 10 mg/kg, po by LC-MS/MS analysis; type: ADME, organism-based; set-up: dose 10 mg/kg, route oral; conditions: in vivo
[31] = Oral bioavailability in CD-1 mouse at 3 mg/kg by LC-MS/MS analysis; type: ADME, organism-based; conditions: in vivo
[32] = Oral bioavailability in CD-1 mouse at 10 mg/kg by LC-MS/MS analysis; type: ADME, organism-based; conditions: in vivo
[33] = Half-life in CD-1 mouse at 10 mg/kg, iv by LC-MS/MS analysis; type: ADME, organism-based; conditions: in vivo
[34] = Half-life in CD-1 mouse at 20 mg/kg, po by LC-MS/MS analysis; type: ADME, organism-based; conditions: in vivo
[35] = AUC in CD-1 mouse at 10 mg/kg, iv by LC-MS/MS analysis; type: ADME, organism-based; conditions: in vivo
[36] = AUC in CD-1 mouse at 20 mg/kg, po by LC-MS/MS analysis; type: ADME, organism-based; conditions: in vivo
[37] = Clearance in CD-1 mouse at 10 mg/kg, iv by LC-MS/MS analysis; type: ADME, organism-based; conditions: in vivo
[38] = Cmax in CD-1 mouse at 10 mg/kg, iv by LC-MS/MS analysis; type: ADME, organism-based; set-up: dose 10 mg/kg, route intravenous; conditions: in vivo
[39] = Cmax in CD-1 mouse at 20 mg/kg, po by LC-MS/MS analysis; type: ADME, organism-based; set-up: dose 20 mg/kg, route oral; conditions: in vivo
[40] = Oral bioavailability in CD-1 mouse at 20 mg/kg by LC-MS/MS analysis; type: ADME, organism-based; conditions: in vivo
PC-3 [41] = assay: Cytotoxicity against human PC3 cells assessed as reduction in cell viability by CellTiter-Fluor assay; type: cell-based
Homo sapiens [42] = species: Homo sapiens; assay: Inhibition of Rho/MRTF/SRF pathway in human primary dermal fibroblasts assessed as reduction in LPA-stimulated CTGF mRNA expression by measuring CTGF mRNA level at 10^-6 M preincubated for 72 hrs followed by LPA stimulation and measured after 1 hr by qPCR analysis relative to control; set-up: scale not given: the % may be the effect or the level left

Compound: O=C(O)CSc1nnc(-c2ccc(Cl)cc2Cl)o1
Activity (PC-3 [1]): < 5%

IC50 [4]: 4 nM
IC50 [5]: 2 nM
t1/2 [6]: > 1 h
solubility thermodynamic [7]: 682 µM (≈ 218 µg/mL)
t1/2 [8]: 2 h
half-life [9]: 2 h
AUC [10]: 47400 ng·h/mL
AUC [11]: 63200 ng·h/mL
clearance [12]: 5.3 mL/min/kg
Cmax [13]: 88600 ng/mL
Cmax [14]: 34000 ng/mL
bioavailability [15]: 67%
inhibition (Homo sapiens [16]): inactive
inhibition (Homo sapiens [17]): Dose-dependent effect
Compound: O=C(O)CCSc1nnc(-c2ccc(Cl)cc2Cl)o1
Activity (Mus musculus [2]): Dose-dependent effect
Activity (Mus musculus [3]): Dose-dependent effect
Activity (PC-3 [1]): < 5%
Activity (HEK-293T): < 5%

IC50 [4]: 180 nM
Compound: Cc1cccc(-c2nnc(SCCC(=O)O)o2)c1
Activity (PC-3 [1]): < 5%

IC50 [5]: 0.019 nM
Compound: O=C(O)CCCSc1nnc(-c2cccc(C3CC3)c2Cl)o1
Activity (HEK-293T): < 5%

IC50 [5]: 2 nM
Compound: COc1ccc(-c2nnc(SCCCC(=O)O)o2)c(Cl)c1
Activity (HEK-293T): < 5%

IC50 [5]: 25 nM
Compound: O=C(O)CCCSc1nnc(-c2ccc(-c3ccccc3)cc2Cl)o1
Activity (HEK-293T): < 5%

IC50 [5]: 370 nM
Compound: O=C(O)CCCSc1nnc(-c2ccc(OC3COC3)cc2Cl)o1
Activity (HEK-293T): < 5%

IC50 [4]: 0.1 nM
t1/2 [6]: 0.467 h
Compound: Cc1ccc(-c2nnc(SCCCC(=O)O)o2)c(Cl)c1
Activity (PC-3 [1]): < 5%

IC50 [4]: 3600 nM
Compound: COc1cccc(-c2nnc(SCCC(=O)O)o2)c1
Activity (PC-3 [1]): < 5%

IC50 [4]: 0.001 nM
IC50 [5]: 0.001 nM
t1/2 [6]: 0.783 h
solubility thermodynamic [20]: > 1000 µM
half-life [9]: 2.2 h
half-life [21]: 1.7 h
half-life [22]: 1.6 h
half-life [23]: 1.8 h
AUC [11]: 9500 ng·h/mL
AUC [24]: 3260 ng·h/mL
AUC [25]: 361 ng·h/mL
AUC [26]: 1830 ng·h/mL
clearance [27]: 15.4 mL/min/kg
Cmax [14]: 10100 ng/mL
Cmax [28]: 8140 ng/mL
Cmax [29]: 397 ng/mL
Cmax [30]: 1430 ng/mL
bioavailability [15]: 29%
bioavailability [31]: 11%
bioavailability [32]: 17%
inhibition (Homo sapiens [16]): inactive
inhibition (Homo sapiens [17]): Dose-dependent effect
Compound: O=C(O)CCCSc1nnc(-c2ccc(C3CC3)cc2Cl)o1
Activity (Mus musculus [18]): Active
Activity (Mus musculus [19]): Active
Activity (PC-3 [1]): < 5%
Activity (HEK-293T): < 5%

IC50 [4]: > 100000 nM
Compound: c1ccc(-c2nnc(SCCC3OCCCO3)o2)cc1

IC50 [4]: 2.6 nM
Compound: COc1ccc(-c2nnc(SCCC(=O)O)o2)c(Cl)c1
Activity (PC-3 [1]): < 5%

IC50 [4]: 1500 nM
Compound: O=C(O)CCSc1nnc(-c2cccc(Cl)c2)o1
Activity (PC-3 [1]): < 5%

IC50 [5]: 1.3 nM
t1/2 [6]: > 1 h
Compound: O=C(O)CCCSc1nnc(-c2ccc(OC3CC3)cc2Cl)o1
Activity (HEK-293T): < 5%

IC50 [5]: 0.32 nM
Compound: Cc1cc(-c2nnc(SCCC(=O)O)o2)c(Cl)cc1Cl
Activity (HEK-293T): < 5%

IC50 [4]: 1.5 nM
Compound: Cc1ccc(-c2nnc(SCCC(=O)O)o2)c(Cl)c1
Activity (PC-3 [1]): < 5%

IC50 [4]: > 100000 nM
Compound: Cc1occc1-c1nnc(SCCC(=O)O)o1

IC50 [4]: 1.8 nM
IC50 [5]: 0.84 nM
t1/2 [6]: > 1 h
solubility thermodynamic [7]: 841 µM (≈ 280 µg/mL)
half-life [33]: 1.4 h
half-life [34]: 1.2 h
AUC [35]: 10700 ng·h/mL
AUC [36]: 11100 ng·h/mL
clearance [37]: 15.5 mL/min/kg
Cmax [38]: 35600 ng/mL
Cmax [39]: 23200 ng/mL
bioavailability [40]: 52%
Compound: O=C(O)CCCSc1nnc(-c2ccc(Cl)cc2Cl)o1
Activity (PC-3 [1]): < 5%
Activity (HEK-293T): < 5%

IC50 [4]: > 100000 nM
Compound: O=C(O)CCSc1nnc(-c2ccncc2)o1

IC50 [4]: 6300 nM
Compound: Cc1ccccc1-c1nnc(SCCC(=O)O)o1
Activity (PC-3 [1]): < 5%

IC50 [5]: 0.0007 nM
Compound: CCc1ccc(-c2nnc(SCCCC(=O)O)o2)c(Cl)c1
Activity (HEK-293T): < 5%

IC50 [4]: 2.6 nM
Compound: CCOC(=O)CCSc1nnc(-c2ccc(Cl)cc2Cl)o1
Activity (PC-3 [1]): < 5%

IC50 [5]: 46 nM
Compound: O=C(O)CCCSc1nnc(-c2ccc(C(F)(F)F)cc2)o1
Activity (HEK-293T): < 5%

IC50 [5]: > 100000 nM
Compound: O=C(O)CCCS(=O)(=O)c1nnc(-c2ccc(Cl)cc2Cl)o1

IC50 [4]: 1300 nM
Activity (Homo sapiens [42]): 45%
Compound: COC(=O)c1ccc2c(c1)NC(=O)/C2=C(\Nc1ccc(N(C)C(=O)CN2CCN(C)CC2)cc1)c1ccccc1 [NINTEDANIB]
IC50 (PC-3 [41]): < 30000 nM
